In ChEMBL document CHEMBL1201862, “PubChem BioAssay data set” (2004):
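Briefly, cells in 96-well plates were exposed to five compound concentrations for 48 h, and endpoints were estimated by linear interpolation. GI50 is the concentration that inhibits growth by half.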 Active and inactive are the calls of the source. No stated cut-off is given here; in the data, active = GI50 up to about 1.1 µM and inactive = higher.

Legend:
Assay in all cases: NCI tumour cell line growth inhibition, 48 h
KM12 = test system: KM12
RXF 393 = test system: RXF 393
COLO 205 = test system: COLO 205
RPMI-8226 = test system: RPMI-8226
SK-OV-3 = test system: SK-OV-3
A549 = test system: A549
NCI-H460 = test system: NCI-H460
SN12C = test system: SN12C
786-0 = test system: 786-0
UACC-62 = test system: UACC-62
NCI-H522 = test system: NCI-H522
OVCAR-3 = test system: OVCAR-3
EKVX = test system: EKVX
SNB-75 = test system: SNB-75
UO-31 = test system: UO-31
MOLT-4 = test system: MOLT-4
M14 = test system: M14

Measured: GI50

Cc1nc(-n2nc(-c3ccccc3)cc2-c2ccccc2)sc1C(=O)/C=C/c1ccccc1
inactive: KM12 84.3 µM | RXF 393 > 100 µM | COLO 205 > 100 µM | RPMI-8226 > 100 µM | SK-OV-3 > 100 µM | A549 75.3 µM | NCI-H460 > 100 µM | SN12C > 100 µM | 786-0 > 100 µM | UACC-62 > 100 µM | NCI-H522 33.1 µM | OVCAR-3 81.1 µM | EKVX 32.9 µM | SNB-75 6.58 µM | UO-31 17.9 µM | MOLT-4 31.8 µM

CCN(CC)CCNC(=O)c1cccc2cc3ccccc3nc12
inactive: KM12 8 µM | RXF 393 3.49 µM | COLO 205 4.44 µM | M14 5.9 µM | SK-OV-3 8.93 µM | A549 3.56 µM | NCI-H460 2.88 µM | SN12C 5.18 µM | 786-0 6.15 µM | UACC-62 4.79 µM | OVCAR-3 11.6 µM | EKVX 5.73 µM | SNB-75 7.71 µM | UO-31 3.45 µM | MOLT-4 2.96 µM

NNC(=O)C(=O)N/N=C(\CCCC(=O)Nc1ccc(Cl)cc1)CC(=O)c1ccc(F)cc1
inactive: KM12 > 100 µM | RXF 393 > 100 µM | COLO 205 > 100 µM | M14 51.3 µM | RPMI-8226 36.1 µM | A549 > 100 µM | NCI-H460 > 100 µM | SN12C > 100 µM | 786-0 > 100 µM | UACC-62 3.43 µM | OVCAR-3 > 100 µM | EKVX > 100 µM | SNB-75 > 100 µM | UO-31 > 100 µM | MOLT-4 > 100 µM

CCOC(=O)c1cc2c(nc1N)-c1ncccc1CC2
inactive: KM12 49.9 µM | RXF 393 > 100 µM | COLO 205 31.5 µM | M14 > 100 µM | RPMI-8226 22.6 µM | SK-OV-3 45.1 µM | A549 38.5 µM | NCI-H460 77.1 µM | SN12C 94.4 µM | 786-0 82.2 µM | UACC-62 58.1 µM | NCI-H522 33.4 µM | OVCAR-3 18.5 µM | EKVX 43.8 µM | SNB-75 > 100 µM | UO-31 88.1 µM | MOLT-4 47.6 µM

NC(=O)N/N=C(\Cc1nc2ccc(C(=O)c3ccccc3)cc2nc1O)C(=O)Nc1ccc(Br)cc1
inactive: KM12 > 100 µM | RXF 393 > 100 µM | M14 > 100 µM | RPMI-8226 > 100 µM | SK-OV-3 > 100 µM | A549 > 100 µM | NCI-H460 > 100 µM | SN12C > 100 µM | 786-0 > 100 µM | UACC-62 > 100 µM | NCI-H522 > 100 µM | OVCAR-3 > 100 µM | EKVX > 100 µM | SNB-75 > 100 µM | UO-31 > 100 µM | MOLT-4 > 100 µM

O=C(CC1C(=O)Nc2ccccc2[S+]1[O-])Nc1cc(Cl)ccc1Cl (centres undefined)
inactive: RXF 393 > 100 µM | M14 > 100 µM | RPMI-8226 > 100 µM | A549 > 100 µM | NCI-H460 > 100 µM | SN12C > 100 µM | 786-0 > 100 µM | UACC-62 > 100 µM | NCI-H522 > 100 µM | OVCAR-3 > 100 µM | EKVX > 100 µM | SNB-75 > 100 µM | UO-31 > 100 µM | MOLT-4 > 100 µM

CCc1cccc(C)c1NC(=O)CCc1nnc(S)[nH]1
inactive: KM12 > 100 µM | RXF 393 > 100 µM | M14 > 100 µM | RPMI-8226 > 100 µM | SK-OV-3 > 100 µM | A549 > 100 µM | NCI-H460 > 100 µM | SN12C > 100 µM | 786-0 > 100 µM | UACC-62 > 100 µM | NCI-H522 > 100 µM | OVCAR-3 > 100 µM | EKVX > 100 µM | UO-31 > 100 µM | MOLT-4 > 100 µM

COc1cccc(NC(=S)Nn2c(C)nc3ccccc3c2=O)c1
inactive: KM12 > 100 µM | RXF 393 > 100 µM | COLO 205 > 100 µM | M14 > 100 µM | RPMI-8226 > 100 µM | SK-OV-3 > 100 µM | A549 > 100 µM | NCI-H460 > 100 µM | SN12C > 100 µM | 786-0 > 100 µM | UACC-62 71.6 µM | NCI-H522 > 100 µM | SNB-75 > 100 µM | UO-31 > 100 µM | MOLT-4 > 100 µM

CC(C)c1cccc(C(C)C)c1NC(=O)C(=O)C(C(=O)c1ccccc1-c1ccccc1)C1OC(=O)c2ccccc21 (centres undefined)
inactive: KM12 16.7 µM | RXF 393 12.9 µM | COLO 205 30.9 µM | RPMI-8226 32.6 µM | A549 28 µM | NCI-H460 15 µM | SN12C 20.8 µM | 786-0 17.8 µM | UACC-62 17.5 µM | NCI-H522 15.5 µM | EKVX > 10 µM | UO-31 18.7 µM | MOLT-4 11.6 µM

CC(=O)CCCCCCCCCCCC[C@@H]1CC[C@H](C)[C@H](O)N1
inactive: KM12 > 100 µM | RXF 393 > 100 µM | COLO 205 > 100 µM | M14 53.5 µM | RPMI-8226 > 100 µM | SK-OV-3 > 100 µM | A549 > 100 µM | NCI-H460 > 100 µM | 786-0 > 100 µM | UACC-62 97.7 µM | NCI-H522 > 100 µM | OVCAR-3 > 100 µM | EKVX > 100 µM | SNB-75 89.1 µM | UO-31 67.1 µM | MOLT-4 > 100 µM

CCCCNC1=C(C(=O)OCC)/C(=N/NC(=O)c2ccccc2O)CO1
inactive: KM12 79.3 µM | RXF 393 23.8 µM | COLO 205 > 100 µM | M14 37.2 µM | RPMI-8226 86.7 µM | SK-OV-3 > 100 µM | A549 47.8 µM | NCI-H460 33.3 µM | SN12C 61 µM | 786-0 32.1 µM | UACC-62 13.1 µM | NCI-H522 13.4 µM | OVCAR-3 27.1 µM | EKVX > 100 µM | SNB-75 1.73 µM | UO-31 4.54 µM | MOLT-4 40.1 µM

O=C(O)c1c[nH]cc1C(=O)O
inactive: KM12 > 100 µM | RXF 393 > 100 µM | COLO 205 > 100 µM | M14 > 100 µM | RPMI-8226 > 100 µM | SK-OV-3 > 100 µM | A549 > 100 µM | NCI-H460 > 100 µM | SN12C > 100 µM | 786-0 > 100 µM | UACC-62 > 100 µM | NCI-H522 > 100 µM | OVCAR-3 > 100 µM | EKVX > 100 µM | SNB-75 96.4 µM | UO-31 > 100 µM | MOLT-4 > 100 µM

CN1CCCNCCN(CCc2ccccn2)CCCN(C)CC1
inactive: KM12 > 67.6 µM | COLO 205 > 43.5 µM | M14 > 95.7 µM | RPMI-8226 > 52.8 µM | SK-OV-3 > 100 µM | A549 > 100 µM | NCI-H460 > 67.3 µM | SN12C > 100 µM | 786-0 24.2 µM | UACC-62 > 100 µM | NCI-H522 > 100 µM | OVCAR-3 > 100 µM | EKVX > 91.4 µM | SNB-75 > 100 µM | UO-31 > 100 µM | MOLT-4 > 100 µM

Cc1ccc(C(=O)N2CCCCC2)cc1/N=N/N(C)C
inactive: KM12 > 100 µM | COLO 205 > 100 µM | M14 > 100 µM | RPMI-8226 > 100 µM | SK-OV-3 > 10 µM | A549 > 100 µM | NCI-H460 > 100 µM | SN12C > 100 µM | 786-0 > 100 µM | UACC-62 > 100 µM | NCI-H522 > 100 µM | OVCAR-3 > 100 µM | EKVX > 100 µM | SNB-75 > 100 µM | UO-31 > 100 µM | MOLT-4 > 100 µM

OCc1ccc2[n+](c1)CCC1c3ccccc3NC21 (centres undefined)
inactive: KM12 > 300 µM | RXF 393 > 300 µM | COLO 205 > 300 µM | RPMI-8226 > 300 µM | SK-OV-3 > 300 µM | A549 > 300 µM | NCI-H460 > 300 µM | SN12C > 300 µM | 786-0 > 300 µM | UACC-62 > 300 µM | NCI-H522 > 300 µM | OVCAR-3 240 µM | EKVX > 300 µM | MOLT-4 > 300 µM

CC1CC(=O)CC[C@@H]1OCc1ccccc1 (some centres undefined)
inactive: KM12 > 100 µM | RXF 393 > 100 µM | COLO 205 > 100 µM | M14 > 100 µM | RPMI-8226 47 µM | SK-OV-3 > 100 µM | A549 > 100 µM | NCI-H460 > 100 µM | SN12C > 100 µM | 786-0 > 100 µM | UACC-62 > 100 µM | OVCAR-3 > 100 µM | EKVX > 100 µM | SNB-75 > 100 µM | UO-31 > 100 µM | MOLT-4 54.3 µM

Cc1cc2c(=O)n(-c3ccc(F)cc3)c(C)nc2c(C(=O)O)c1C
inactive: KM12 > 100 µM | RXF 393 > 100 µM | COLO 205 > 100 µM | M14 > 100 µM | RPMI-8226 > 100 µM | SK-OV-3 > 100 µM | A549 > 100 µM | NCI-H460 > 100 µM | SN12C > 100 µM | 786-0 > 100 µM | UACC-62 > 100 µM | OVCAR-3 > 100 µM | EKVX > 100 µM | SNB-75 > 100 µM | UO-31 > 100 µM | MOLT-4 > 100 µM
